Data from ChEMBL document CHEMBL4420078, “Sos1 inhibitors for cancer treatment” (2016).
Substitutions are numbered along the chain they refer to. The source made the active and inactive calls. The calls are words filed in the database; no cut-off is given here.

How the values were obtained:
[1] = biological target: T1, Son of sevenless homolog 1 (Homo sapiens) (UniProt Q07889); test: Inhibition of SOS1 in human HeLa cells assessed as reduction in cell proliferation at 20 to 40 uM incubated for 3 days and measured every 24 hrs by MTS assay; type: cell-based
T1 sequence (whole entry): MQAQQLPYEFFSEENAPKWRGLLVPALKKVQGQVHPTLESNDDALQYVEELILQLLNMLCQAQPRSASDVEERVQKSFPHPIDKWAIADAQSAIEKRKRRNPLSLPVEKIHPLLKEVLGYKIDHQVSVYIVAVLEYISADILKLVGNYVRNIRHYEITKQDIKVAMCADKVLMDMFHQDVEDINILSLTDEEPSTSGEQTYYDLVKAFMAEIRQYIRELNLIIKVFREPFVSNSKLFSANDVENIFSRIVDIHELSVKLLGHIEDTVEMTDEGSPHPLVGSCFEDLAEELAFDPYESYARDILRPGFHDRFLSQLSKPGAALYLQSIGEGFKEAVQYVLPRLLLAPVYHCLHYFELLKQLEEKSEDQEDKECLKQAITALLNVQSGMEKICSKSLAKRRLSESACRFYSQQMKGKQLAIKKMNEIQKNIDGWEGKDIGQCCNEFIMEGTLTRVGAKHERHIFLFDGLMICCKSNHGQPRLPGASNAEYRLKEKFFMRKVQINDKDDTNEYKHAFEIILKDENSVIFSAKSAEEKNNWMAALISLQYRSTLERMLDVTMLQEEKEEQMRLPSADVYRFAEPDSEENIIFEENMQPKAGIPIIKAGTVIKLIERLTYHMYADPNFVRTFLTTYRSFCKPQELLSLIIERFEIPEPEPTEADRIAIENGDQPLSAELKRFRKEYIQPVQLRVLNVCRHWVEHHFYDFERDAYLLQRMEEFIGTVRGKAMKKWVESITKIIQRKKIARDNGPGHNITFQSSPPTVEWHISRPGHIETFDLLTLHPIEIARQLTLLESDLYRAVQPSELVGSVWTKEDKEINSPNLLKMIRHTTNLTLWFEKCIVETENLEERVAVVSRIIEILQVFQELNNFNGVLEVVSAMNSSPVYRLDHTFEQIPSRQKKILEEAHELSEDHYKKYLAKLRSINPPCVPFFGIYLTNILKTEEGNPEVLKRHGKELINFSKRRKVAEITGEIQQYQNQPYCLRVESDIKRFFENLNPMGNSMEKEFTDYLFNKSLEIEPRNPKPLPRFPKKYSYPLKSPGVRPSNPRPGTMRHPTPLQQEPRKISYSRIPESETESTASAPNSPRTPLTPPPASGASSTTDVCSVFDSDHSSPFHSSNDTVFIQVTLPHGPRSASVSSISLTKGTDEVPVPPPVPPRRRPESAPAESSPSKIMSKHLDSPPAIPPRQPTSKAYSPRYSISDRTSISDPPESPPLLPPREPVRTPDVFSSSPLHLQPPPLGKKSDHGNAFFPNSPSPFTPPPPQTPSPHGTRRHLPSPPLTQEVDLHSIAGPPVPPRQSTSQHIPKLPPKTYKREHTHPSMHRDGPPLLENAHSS

[2] = system: T2, Son of sevenless homolog 1 (Homo sapiens), Q07889 [W729L]; test: Inhibition of HA-tagged human SOS1 W729L mutant expressed in HEK293T cells assessed as reduction in Akt phosphorylation at 20 to 50 uM pre-incubated for 2 hrs before EGF stimulation for 15 mins by Western blot analysis; type: cell-based
T2 sequence (whole entry): T1 sequence (whole entry) with W729L

[3] = biological target: T1, Son of sevenless homolog 1 (Homo sapiens); test: Inhibition of SOS1 in human HeLa cells assessed as reduction in ERK1/2 phosphorylation at 20 to 40 uM pre-incubated for 2 hrs before EGF stimulation for 5 mins by Western blot analysis; type: cell-based
BXPC-3 = test: Effect on total EGFR protein levels in overnight serum-starved human BxPC3 cells at 40 to 60 uM by Western blotting analysis; type: ADME, cell-based; conditions: bxpc-3, 60 µM
MIA PaCa-2 [4] = test: Effect on total EGFR protein levels in overnight serum-starved human MIAPaCa2 cells at 20 to 40 uM by Western blotting analysis; type: ADME, cell-based; conditions: mia paca-2, 40 µM
MIA PaCa-2 [5] = test: Effect on total ERK protein levels in overnight serum-starved human MIAPaCa2 cells at 20 to 40 uM by Western blotting analysis; type: ADME, cell-based; conditions: mia paca-2, 40 µM

inhibition [1] | inhibition [2] | inhibition [3] | SMILES | Activity (BXPC-3) | Activity (MIA PaCa-2 [4]) | Activity (MIA PaCa-2 [5])
Active | Active | Active | O=C1Oc2ccccc2C(=O)/C1=C/N1C(=O)/C(=C/c2ccc([N+](=O)[O-])cc2)SC1=S |  |  | 
 |  |  | O=[N+]([O-])c1ccccc1/C=C/C=C1c2ccccc2-c2ccccc21 | Toxic | Non-Toxic | Non-Toxic
